Literature values in PMC6138493 (British Journal of Clinical Pharmacology, 2018).

Details: after intravenous administration; ref Onasch et al. 24

Elimination half‐life of DA in plasma: a few minutes
Structure (SMILES): NCCc1ccc(O)c(O)c1 [DA, dopamine]
